# In patent US20230278972A1, “SUBSTITUTED HALOALKYL SULFONANILIDE HERBICIDES” (FMC Corporation, priority 2020, published 2023):
# How the values were obtained:
# Assay type in all cases: in vivo
# [1] = tested on: blackgrass (Alopecurus myosuroides); assay: Test A1 postemergence, blackgrass; details: 0 to 100 scale (0 no effect, 100 complete control); for Plant response rating, Blackgrass: Postemergence; for Blackgrass plant response rating: postemergence
# Outline: (§1)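 Pre: seeds in loam/sand blend, directed soil spray. Post: potted plants, same soil, 2–10 cm, 1–2 leaf stage. Chemicals in non-phytotoxic solvent + surfactant for both.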
# [2] = tested on: wheat (Triticum aestivum); assay: Test A1 postemergence, wheat; details: for Wheat plant response rating: 31 g ai/ha, postemergence; for Plant response rating, Wheat: Postemergence
# Outline: as §1
# [3] = tested on: ragweed (common ragweed, Ambrosia artemisiifolia); assay: Test A1 postemergence, ragweed; details: for Ragweed plant response rating: 31 g ai/ha, postemergence; for Plant response rating, Ragweed: Postemergence
# Outline: (§2)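 Herbicidal response was scored on plants treated either preemergence, by directed spray onto soil of a loam–sand blend after sowing, or postemergence on potted plants at the one- to two-leaf stage, 2–10 cm high. Test chemicals were carried in a non-phytotoxic solvent mix with surfactant.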
# corn (Zea mays) = assay: Test A1 postemergence, corn; details: for Plant response rating, Corn: Postemergence; for Corn plant response rating: postemergence
# Outline: as §2
# [4] = 0 to 100 scale (0 no effect, 100 complete control)
# [5] = 31 g ai/ha, 0 to 100 scale (0 no effect, 100 complete control), 10 days
# [6] = 125 g ai/ha, 0 to 100 scale (0 no effect, 100 complete control), 10 days
# [7] = 31 g ai/ha, 0 to 100 scale (0 no effect, 100 complete control)
SMILES,"Plant response rating, Blackgrass ([1]; 31 g ai/ha, 10 days)","Plant response rating, Blackgrass ([1]; 125 g ai/ha)","Wheat plant response rating [2, 4]","Plant response rating, Wheat ([2]; 125 g ai/ha, 0 to 100 scale)","Ragweed plant response rating [3, 4]","Plant response rating, Ragweed ([3]; 125 g ai/ha, 0 to 100 scale)","Plant response rating, Corn (corn (Zea mays); [5])","Plant response rating, Corn (corn (Zea mays); 125 g ai/ha, 0 to 100 scale)",Blackgrass plant response rating ([1]; 31 g ai/ha),"Plant response rating, Blackgrass ([1]; 125 g ai/ha, 10 days)","Plant response rating, Wheat [2, 6]","Plant response rating, Ragweed [3, 6]",Corn plant response rating (corn (Zea mays); [7]),"Plant response rating, Corn (corn (Zea mays); [6])","Plant response rating, Blackgrass ([1]; 500 g ai/ha)","Plant response rating, Wheat ([2]; 500 g ai/ha, 0 to 100 scale)","Plant response rating, Ragweed ([3]; 500 g ai/ha, 0 to 100 scale)","Plant response rating, Corn (corn (Zea mays); 500 g ai/ha, 0 to 100 scale)"
Cc1cc(C)c(C2=NOC3OCCCC23)cc1NS(=O)(=O)C(F)(F)F (centres unmarked) [Compound 372],0,30,10,70,40,80,20,50,,,,,,,,,,
CCC1CC(c2cc(NS(=O)(=O)C(F)(F)F)c(C)cc2C)=NO1 (centres unmarked) [Compound 375],0,0,0,70,0,50,0,0,,,,,,,,,,
CCC1CC(c2cc(N(COC(=O)C(C)(C)C)S(=O)(=O)C(F)(F)F)c(C)cc2C)=NO1 (centres unmarked) [Compound 376],0,50,10,40,20,40,0,0,,,,,,,,,,
Cc1ccc(C2=NOC3CCCC23)cc1NS(=O)(=O)C(F)(F)F (centres unmarked) [Compound 377],0,0,0,20,20,30,0,0,,,,,,,,,,
CCc1cc(C)c(N(COC(=O)C(C)(C)C)S(=O)(=O)C(F)(F)F)cc1C1=NOC2CCCC12 (centres unmarked) [Compound 378],0,30,30,60,0,30,0,30,,,,,,,,,,
Cc1c(NS(=O)(=O)C(F)(F)F)cc(C2=NOC3(CCCC3)C2)c(C)c1C [Compound 380],,,0,,40,,,,20,20,80,60,0,50,,,,
Cc1c(C2=NOC3(CCCC3)C2)cc(N(COC(=O)C(C)(C)C)S(=O)(=O)C(F)(F)F)c(C)c1C [Compound 382],,,0,,20,,,,0,0,60,40,0,0,,,,
Cc1cc(C)c(N(COC(=O)C(C)(C)C)S(=O)(=O)C(F)(F)F)cc1C1=NOC(C(C)C)C1 (centres unmarked) [Compound 383],,,0,,30,,,,0,50,70,40,0,0,,,,
Cc1cc(C)c(N2CC3(CCCCC3)CC2=O)cc1NS(=O)(=O)C(F)(F)F [Compound 392],,,0,,30,,,,0,0,30,70,0,0,,,,
Cc1cc(C)c(N(COC(=O)C(C)(C)C)S(=O)(=O)C(F)(F)F)cc1N1CCC2(CCC(F)(F)CC2)C1=O [Compound 397],,,,,,,,,,40,60,80,,10,90,70,80,10
COC1CCC2(CC1)CCN(c1cc(NS(=O)(=O)C(F)(F)F)c(C)cc1C)C2=O (centres unmarked) [Compound 398],,,60,,20,,,,0,30,70,80,30,60,,,,
Cc1cc(C)c(N(S(=O)(=O)C(F)(F)F)S(=O)(=O)C(F)(F)F)cc1N1CCC2(CCC(C(F)(F)F)CC2)C1=O (centres unmarked) [Compound 399],,,60,,50,,,,40,90,60,90,0,10,,,,
Cc1cc(C)c(N2CCC3(CCC(C(F)(F)F)CC3)C2=O)cc1NS(=O)(=O)C(F)(F)F (centres unmarked) [Compound 400],,,30,,30,,,,0,30,30,80,0,0,,,,
Cc1cc(C)c(N2Cc3cccc(C)c3C2=O)cc1NS(=O)(=O)Cl [Compound 408],,,60,,40,,,,80,90,70,90,80,80,,,,
COc1cccc2c1C(=O)N(c1cc(N(COC(=O)C(C)(C)C)S(=O)(=O)Cl)c(C)cc1C)C2 [Compound 413],,,0,,60,,,,0,0,0,90,30,30,,,,
CCOc1cccc2c1C(=O)N(c1cc(N(COC(=O)C(C)(C)C)S(=O)(=O)Cl)c(C)cc1C)C2 [Compound 414],,,0,,40,,,,0,30,0,70,0,0,,,,
